This note sets out measurements from ChEMBL document CHEMBL5465560, “Selectivity Literature for EUbOPEN Chemogenomic Library” (2024).

Broadly, the IC50 is the concentration that gives 50% inhibition. Higher therefore signals weaker potency.

Experiment [1] concerns the target Calcium/calmodulin-dependent protein kinase type II subunit gamma (Homo sapiens) (UniProt Q13555). As to the kind of experiment: Selectivity interaction (LanthaScreen Eu Kinase Binding Assay) EUB0001632a CAMK2G. The conditions noted are these: at 10 µM.
Experiment [2] concerns the target T1, Histone-arginine methyltransferase CARM1 (Homo sapiens, UniProt Q86X55).
T1 sequence (Q86X55 whole entry): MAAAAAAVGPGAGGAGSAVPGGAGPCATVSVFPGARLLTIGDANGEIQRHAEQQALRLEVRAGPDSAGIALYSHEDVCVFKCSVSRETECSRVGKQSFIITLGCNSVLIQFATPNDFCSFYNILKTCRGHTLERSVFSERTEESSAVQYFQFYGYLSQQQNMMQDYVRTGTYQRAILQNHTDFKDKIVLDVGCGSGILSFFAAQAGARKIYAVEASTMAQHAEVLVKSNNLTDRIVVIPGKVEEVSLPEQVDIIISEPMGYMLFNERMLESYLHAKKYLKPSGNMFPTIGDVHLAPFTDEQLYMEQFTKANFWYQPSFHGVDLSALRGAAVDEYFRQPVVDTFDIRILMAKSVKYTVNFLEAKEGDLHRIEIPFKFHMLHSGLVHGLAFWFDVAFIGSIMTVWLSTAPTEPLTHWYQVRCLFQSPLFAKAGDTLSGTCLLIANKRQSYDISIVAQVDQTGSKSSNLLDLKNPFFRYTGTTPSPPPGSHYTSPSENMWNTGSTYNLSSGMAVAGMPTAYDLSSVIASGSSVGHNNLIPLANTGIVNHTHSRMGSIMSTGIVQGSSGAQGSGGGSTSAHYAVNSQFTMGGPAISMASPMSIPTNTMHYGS
As to the kind of experiment: Selectivity interaction (Western Blot (dimethylation of BAF155 (BAF155me2a/BAF155) in NCI-H929 cells)) EUB0000255b CARM1. The class given is cell-based.

Experiment [3] concerns the target Glycogen synthase kinase-3 beta (Homo sapiens, UniProt P49841). As to the kind of experiment: Selectivity interaction (SelectScreen profiling (Invitrogen)) EUB0000607a GSK3B. Conditions: at 2 µM.
Experiment [4] has as its target T2, Mitogen-activated protein kinase 12 (Homo sapiens) (UniProt P53778).
T2 sequence (whole entry): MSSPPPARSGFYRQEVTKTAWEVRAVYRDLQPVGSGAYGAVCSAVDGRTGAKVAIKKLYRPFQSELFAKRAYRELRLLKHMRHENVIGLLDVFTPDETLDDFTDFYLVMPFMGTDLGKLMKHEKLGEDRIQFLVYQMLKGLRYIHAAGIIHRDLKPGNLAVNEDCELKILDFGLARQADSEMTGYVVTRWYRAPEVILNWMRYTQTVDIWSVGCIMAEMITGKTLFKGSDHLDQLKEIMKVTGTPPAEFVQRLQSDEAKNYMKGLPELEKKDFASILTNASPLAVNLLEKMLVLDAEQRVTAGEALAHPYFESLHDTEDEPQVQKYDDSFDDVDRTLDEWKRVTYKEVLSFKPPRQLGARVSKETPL
The conditions noted are these: at 10 µM.

Experiment [5] deals with Serine/threonine-protein kinase RIO2 (Homo sapiens) (UniProt Q9BVS4). The conditions noted are these: at 10 µM.
Chain of Serine/threonine-protein kinase RIO2 (Homo sapiens) (Q9BVS4 whole entry, looked up): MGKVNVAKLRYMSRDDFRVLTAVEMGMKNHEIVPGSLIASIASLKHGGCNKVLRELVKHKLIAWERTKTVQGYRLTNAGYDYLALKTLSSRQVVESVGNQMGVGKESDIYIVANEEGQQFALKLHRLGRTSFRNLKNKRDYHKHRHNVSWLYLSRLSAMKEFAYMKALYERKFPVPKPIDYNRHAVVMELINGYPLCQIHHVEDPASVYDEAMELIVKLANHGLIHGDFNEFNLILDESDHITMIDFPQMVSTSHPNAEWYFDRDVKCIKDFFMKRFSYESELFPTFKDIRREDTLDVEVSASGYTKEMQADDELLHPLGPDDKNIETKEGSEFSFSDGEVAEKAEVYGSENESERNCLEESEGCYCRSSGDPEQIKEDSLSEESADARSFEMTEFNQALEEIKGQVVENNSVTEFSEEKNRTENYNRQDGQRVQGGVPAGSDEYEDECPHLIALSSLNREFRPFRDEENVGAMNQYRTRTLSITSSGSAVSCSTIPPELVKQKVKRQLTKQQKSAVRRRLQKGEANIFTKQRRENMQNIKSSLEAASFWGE
Experiment [6] concerns the target Protein arginine N-methyltransferase 6 (Homo sapiens, UniProt Q96LA8). Conditions: at 1 µM.
The target of experiment [7] is Ribosomal protein S6 kinase alpha-2 (Homo sapiens) (UniProt Q15349). As to the kind of experiment: Selectivity interaction (KinomeScan (DiscoverX)) EUB0000045b RPS6KA2. Conditions: at 10 µM.
Chain of Ribosomal protein S6 kinase alpha-2 (Homo sapiens) (Q15349 whole entry): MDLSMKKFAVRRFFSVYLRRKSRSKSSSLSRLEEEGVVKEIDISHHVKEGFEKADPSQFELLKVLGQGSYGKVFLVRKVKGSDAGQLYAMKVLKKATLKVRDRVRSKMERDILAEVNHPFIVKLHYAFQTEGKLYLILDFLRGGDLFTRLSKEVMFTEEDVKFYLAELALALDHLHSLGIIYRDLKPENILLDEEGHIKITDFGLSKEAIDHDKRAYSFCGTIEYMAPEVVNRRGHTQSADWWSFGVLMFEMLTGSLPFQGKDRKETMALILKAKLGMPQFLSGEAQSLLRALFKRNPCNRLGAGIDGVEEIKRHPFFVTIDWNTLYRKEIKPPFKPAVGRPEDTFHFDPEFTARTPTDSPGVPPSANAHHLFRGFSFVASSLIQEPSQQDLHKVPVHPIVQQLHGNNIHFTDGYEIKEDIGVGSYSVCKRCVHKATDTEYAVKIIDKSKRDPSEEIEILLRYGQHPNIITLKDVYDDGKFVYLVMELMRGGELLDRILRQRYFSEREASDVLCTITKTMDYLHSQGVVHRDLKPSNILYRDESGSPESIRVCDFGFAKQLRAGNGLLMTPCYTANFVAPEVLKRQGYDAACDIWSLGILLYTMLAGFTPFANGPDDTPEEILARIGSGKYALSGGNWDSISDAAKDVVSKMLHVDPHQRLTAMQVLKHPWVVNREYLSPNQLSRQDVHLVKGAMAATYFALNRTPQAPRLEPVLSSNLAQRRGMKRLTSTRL
Experiment [8] deals with T3, Serine/threonine-protein kinase TAO3 (Homo sapiens) (UniProt Q9H2K8).
T3 sequence (whole entry): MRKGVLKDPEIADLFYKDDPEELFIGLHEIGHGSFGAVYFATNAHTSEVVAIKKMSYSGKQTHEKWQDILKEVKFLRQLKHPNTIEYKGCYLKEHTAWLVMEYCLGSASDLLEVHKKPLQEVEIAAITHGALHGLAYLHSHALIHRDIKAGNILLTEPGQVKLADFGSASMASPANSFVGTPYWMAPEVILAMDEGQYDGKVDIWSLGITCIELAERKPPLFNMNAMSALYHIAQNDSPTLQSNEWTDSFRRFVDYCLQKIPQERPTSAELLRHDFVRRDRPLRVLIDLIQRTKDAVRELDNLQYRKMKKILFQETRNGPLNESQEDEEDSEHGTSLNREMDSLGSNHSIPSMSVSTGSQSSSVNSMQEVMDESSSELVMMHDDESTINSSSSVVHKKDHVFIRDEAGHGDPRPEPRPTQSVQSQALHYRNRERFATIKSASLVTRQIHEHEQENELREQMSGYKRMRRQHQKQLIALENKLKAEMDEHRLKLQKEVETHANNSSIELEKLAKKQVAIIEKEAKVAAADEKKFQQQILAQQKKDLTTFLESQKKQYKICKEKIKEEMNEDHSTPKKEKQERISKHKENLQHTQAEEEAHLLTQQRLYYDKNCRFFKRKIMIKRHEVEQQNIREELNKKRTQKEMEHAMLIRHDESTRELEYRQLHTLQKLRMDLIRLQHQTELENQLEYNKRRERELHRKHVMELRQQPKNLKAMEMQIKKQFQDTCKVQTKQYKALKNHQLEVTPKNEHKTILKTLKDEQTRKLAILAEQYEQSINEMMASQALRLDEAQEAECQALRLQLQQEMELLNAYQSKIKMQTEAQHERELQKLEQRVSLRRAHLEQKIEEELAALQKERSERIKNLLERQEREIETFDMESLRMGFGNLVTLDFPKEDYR
As to the kind of experiment: Selectivity interaction (Upstate Kinase Profiler service (Millipore)) EUB0000056c TAOK3. The conditions noted are these: at 1 µM.

Chain of Protein arginine N-methyltransferase 6 (Q96LA8 whole entry, looked up): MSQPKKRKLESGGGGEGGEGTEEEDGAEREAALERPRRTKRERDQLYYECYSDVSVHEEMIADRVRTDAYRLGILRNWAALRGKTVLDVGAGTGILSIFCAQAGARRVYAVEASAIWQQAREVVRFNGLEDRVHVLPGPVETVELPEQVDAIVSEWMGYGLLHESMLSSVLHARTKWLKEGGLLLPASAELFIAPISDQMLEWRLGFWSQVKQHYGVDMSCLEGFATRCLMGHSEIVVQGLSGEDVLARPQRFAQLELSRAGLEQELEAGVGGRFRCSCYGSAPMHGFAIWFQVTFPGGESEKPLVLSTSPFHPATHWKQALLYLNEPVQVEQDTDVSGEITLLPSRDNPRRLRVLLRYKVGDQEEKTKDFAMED
Chain of Glycogen synthase kinase-3 beta (P49841 whole entry, looked up): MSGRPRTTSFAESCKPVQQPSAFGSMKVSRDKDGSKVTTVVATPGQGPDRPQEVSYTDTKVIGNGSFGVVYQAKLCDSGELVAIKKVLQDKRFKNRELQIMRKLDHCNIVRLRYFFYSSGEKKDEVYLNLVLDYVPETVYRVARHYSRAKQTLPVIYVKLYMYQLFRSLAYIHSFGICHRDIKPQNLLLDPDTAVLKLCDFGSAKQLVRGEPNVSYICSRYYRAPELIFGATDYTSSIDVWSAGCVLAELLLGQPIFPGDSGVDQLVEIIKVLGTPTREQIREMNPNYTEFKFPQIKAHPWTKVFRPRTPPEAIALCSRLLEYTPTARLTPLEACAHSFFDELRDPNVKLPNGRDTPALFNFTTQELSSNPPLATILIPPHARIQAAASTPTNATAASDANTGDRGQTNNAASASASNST
Chain of Calcium/calmodulin-dependent protein kinase type II subunit gamma (Homo sapiens) (Q13555 whole entry): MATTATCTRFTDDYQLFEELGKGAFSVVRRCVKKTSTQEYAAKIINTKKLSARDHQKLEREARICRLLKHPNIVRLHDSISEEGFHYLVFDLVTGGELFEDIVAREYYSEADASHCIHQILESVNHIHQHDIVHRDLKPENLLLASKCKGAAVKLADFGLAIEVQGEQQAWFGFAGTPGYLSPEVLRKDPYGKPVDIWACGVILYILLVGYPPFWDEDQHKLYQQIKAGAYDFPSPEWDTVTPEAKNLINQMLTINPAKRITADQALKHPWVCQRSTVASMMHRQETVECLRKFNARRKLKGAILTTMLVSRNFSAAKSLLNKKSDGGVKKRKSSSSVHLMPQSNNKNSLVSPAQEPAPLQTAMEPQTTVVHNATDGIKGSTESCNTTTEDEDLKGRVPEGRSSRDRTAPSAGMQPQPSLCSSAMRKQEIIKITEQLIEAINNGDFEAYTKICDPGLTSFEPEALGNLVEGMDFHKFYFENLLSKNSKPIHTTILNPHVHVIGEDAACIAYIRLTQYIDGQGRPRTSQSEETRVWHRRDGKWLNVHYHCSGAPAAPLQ

In the case of `Cn1cc(-n2cnc3c(NCc4nc5cc(Cl)c(Cl)cc5[nH]4)nc(N4CCOCC4)nc32)cn1`, the % of inhibition in experiment [1] is -8.35%.

In the case of `COCCN1CCC(c2cc(CN(C)C(=O)c3cccc(Oc4ccccc4)c3)ccn2)CC1`, the IC50 in experiment [2] is > 3 nM.

Turning to `CNC(=O)Nc1ccc(-c2nc(N3CC4CCC(C3)O4)c3cnn(C4CCC5(CC4)OCCO5)c3n2)cc1`, the % of inhibition in experiment [3] came to 1%.

Take `Cc1cc([C@@H](C)Nc2ccccc2C(=O)O)c2nc(N3CCOCC3)cc(=O)n2c1` [AZD-6482]: the % of control was found to be 94% in experiment [4] and 54% in experiment [5].

In the case of `CNCCN1CCC(c2cc(CN(C)C(=O)c3cccc(Oc4ccccc4)c3)ccn2)CC1`, in experiment [6], the % activity is > 90%.

`C=CC(=O)Nc1cc(-n2c(=O)ccc3cnc4ccc(-c5ccc(NS(C)(=O)=O)cc5)cc4c32)ccc1C` showed a % of control in experiment [7] of 78%.

Consider `Cc1ccc(-c2ccc3c(ccc4sc5c(c43)NC[C@@H](C)NC5=O)n2)cn1`, for which, in experiment [8], the % of inhibition came out at 19%.
